Measurements taken from patent publication US12077503B2, “Substituted cyclic amides and their use as herbicides” (FMC CORPORATION, priority 2015, dated 2024).

Experiments:
Assay type in all cases: in vivo
[1] = tested on: ducksalad (Heteranthera limosa); test: Test B flooded paddy test; conditions: Flood, 250 g ai/ha; 0 to 100 scale where 0 is no effect and 100 is complete control; 13 to 15 d
Method in brief: (§1)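 Greenhouse paddy pots with 2-leaf stage plants received compound by direct addition to floodwater 3 cm deep, kept at that level. Scored visually at 13–15 d versus controls (0 no effect; 100 complete control).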

[2] = tested on: sedge, umbrella (small-flower umbrella sedge, Cyperus difformis); test: Test B flooded paddy test; conditions: Flood, 250 g ai/ha; 0 to 100 scale where 0 is no effect and 100 is complete control; 13 to 15 d
Method in brief: as §1

[3] = tested on: barnyardgrass (Echinochloa crus-galli); test: Test B flooded paddy test; conditions: Flood, 250 g ai/ha; 0 to 100 scale where 0 is no effect and 100 is complete control; 13 to 15 d
Method in brief: as §1

rice (Oryra sativa) = test: Test B flooded paddy test; conditions: Flood, 250 g ai/ha; 0 to 100 scale where 0 is no effect and 100 is complete control; 13 to 15 d
Method in brief: as §1

Kochia (Kochia scoparia) [4] = test: Test A preemergence; conditions: Preemergence; for Plant response rating, Kochia: 125 g ai/ha, visual injury after approximately 10 d, 0 to 100 scale where 0 is no effect and 100 is complete control; for Kochia plant response rating (0 to 100 scale, 0 is no effect, 100 is complete control): 500 g ai/ha, visual injury approx. 10 d
Method in brief: (§2)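 In a loam soil and sand blend, planted seeds got a preemergence directed soil spray, and young plants at the one- to two-leaf stage, 2–10 cm high, got a postemergence application; ~10 d greenhouse hold; injury rated visually, 0 = none, 100 = complete control.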

[5] = tested on: giant foxtail (Setaria faberii); test: Test A preemergence; conditions: Preemergence; for Plant response rating, Foxtail, Giant: 125 g ai/ha, visual injury after approximately 10 d, 0 to 100 scale where 0 is no effect and 100 is complete control; for Foxtail, Giant plant response rating (0 to 100 scale, 0 is no effect, 100 is complete control): 500 g ai/ha, visual injury approx. 10 d
Method in brief: as §2

[6] = tested on: barnyardgrass (Echinochloa crus-galli); test: Test A preemergence; conditions: Preemergence; for Plant response rating, Barnyardgrass: 125 g ai/ha, visual injury after approximately 10 d, 0 to 100 scale where 0 is no effect and 100 is complete control; for Barnyardgrass plant response rating (0 to 100 scale, 0 is no effect, 100 is complete control): 500 g ai/ha, visual injury approx. 10 d
Method in brief: as §2

[7] = tested on: ryegrass, Italian (Italian ryegrass, Lolium multiflorum); test: Test A preemergence; conditions: Preemergence; for Plant response rating, Ryegrass, Italian: 125 g ai/ha, visual injury after approximately 10 d, 0 to 100 scale where 0 is no effect and 100 is complete control; for Ryegrass, Italian plant response rating (0 to 100 scale, 0 is no effect, 100 is complete control): 500 g ai/ha, visual injury approx. 10 d
Method in brief: as §2

[8] = tested on: pigweed (Amaranthus retroflexus); test: Test A preemergence; conditions: Preemergence; for Plant response rating, Pigweed: 125 g ai/ha, visual injury after approximately 10 d, 0 to 100 scale where 0 is no effect and 100 is complete control; for Pigweed plant response rating (0 to 100 scale, 0 is no effect, 100 is complete control): 500 g ai/ha, visual injury approx. 10 d
[9] = tested on: ragweed (common ragweed, Ambrosia elatior); test: Test A preemergence; conditions: Preemergence; for Plant response rating, Ragweed: 125 g ai/ha, visual injury after approximately 10 d, 0 to 100 scale where 0 is no effect and 100 is complete control; for Ragweed plant response rating (0 to 100 scale, 0 is no effect, 100 is complete control): 500 g ai/ha, visual injury approx. 10 d
Method in brief: as §2

Kochia (Kochia scoparia) [10] = test: Test A postemergence
Method in brief: as §2

corn (Zea mays) = test: Test A postemergence
Method in brief: as §2

[11] = tested on: blackgrass (Alopecurus myosuroides); test: Test A postemergence
Method in brief: as §2

[12] = tested on: Galium (catchweed bedstraw, Galium aparine); test: Test A postemergence
Method in brief: as §2

[13] = tested on: giant foxtail (Setaria faberii); test: Test A postemergence
Method in brief: as §2

[14] = tested on: barnyardgrass (Echinochloa crus-galli); test: Test A postemergence
Method in brief: as §2

[15] = tested on: ryegrass, Italian (Italian ryegrass, Lolium multiflorum); test: Test A postemergence
Method in brief: as §2

[16] = tested on: pigweed (Amaranthus retroflexus); test: Test A postemergence
Method in brief: as §2

[17] = tested on: wheat (Triticum aestivum); test: Test A postemergence
Method in brief: as §2

[18] = tested on: ragweed (common ragweed, Ambrosia elatior); test: Test A postemergence
Method in brief: as §2

[19] = 125 g ai/ha, postemergence, visual injury rating on 0 to 100 scale (0 no effect, 100 complete control), approx. 10 d
[20] = Postemergence, 500 g ai/ha, 0 to 100 scale where 0 is no effect and 100 is complete control
[21] = 125 g ai/ha, postemergence, visual rating after approx. 10 d, 0 to 100 scale (0 no effect, 100 complete control)

Compound	Plant response rating, Ducksalad [1]	Plant response rating, Sedge, Umbrella [2]	Plant response rating, Barnyardgrass [3]	Plant response rating, Rice (rice (Oryra sativa))	Plant response rating, Kochia (Kochia (Kochia scoparia) [4])	Kochia plant response rating (0 to 100 scale, 0 is no effect, 100 is complete control) (Kochia (Kochia scoparia) [4])	Plant response rating, Foxtail, Giant [5]	Foxtail, Giant plant response rating (0 to 100 scale, 0 is no effect, 100 is complete control) [5]	Plant response rating, Barnyardgrass [6]	Barnyardgrass plant response rating (0 to 100 scale, 0 is no effect, 100 is complete control) [6]	Plant response rating, Ryegrass, Italian [7]	Ryegrass, Italian plant response rating (0 to 100 scale, 0 is no effect, 100 is complete control) [7]	Plant response rating, Pigweed [8]	Pigweed plant response rating (0 to 100 scale, 0 is no effect, 100 is complete control) [8]	Plant response rating, Ragweed [9]	Ragweed plant response rating (0 to 100 scale, 0 is no effect, 100 is complete control) [9]	Plant response rating, Kochia (Kochia (Kochia scoparia) [10]; [20])	Plant response rating, Corn (corn (Zea mays); [20])	Plant response rating, Blackgrass [11, 20]	Plant response rating, Galium [12, 20]	further results
O=C1NCC(c2cc(F)cc(Cl)c2)C1C(=O)Nc1ccc(F)cc1F (stereo not drawn) [Compound 493]	80	0	60	25	0	20	90	90	90	90	0	20	0	0	0	30	20	70	50	40	Kochia plant response rating (Kochia (Kochia scoparia) [10]; [19]): 0; Corn plant response rating (corn (Zea mays); [19]): 0; Blackgrass plant response rating [11, 19]: 20; Galium plant response rating [12, 19]: 30; Foxtail, Giant plant response rating [13, 19]: 90; Plant response rating, Foxtail, Giant [13, 20]: 90; Barnyardgrass plant response rating [14, 19]: 90; Plant response rating, Barnyardgrass [14, 20]: 90; Ryegrass, Italian plant response rating [15, 19]: 20; Plant response rating, Ryegrass, Italian [15, 20]: 50; Pigweed plant response rating [16, 19]: 0; Plant response rating, Pigweed [16, 20]: 0; Wheat plant response rating [17, 19]: 0; Plant response rating, Wheat [17, 20]: 30; Ragweed plant response rating [18, 19]: 20; Plant response rating, Ragweed [18, 20]: 20
CN1CC(c2c(F)cccc2F)C(C(=O)Nc2cccc(F)c2F)C1=O (stereo not drawn) [Compound 547]	0	0	0	0	0	0	90	90	90	90	0	0	0	0	0	70	50	0	0	20	Plant response rating, Kochia (Kochia (Kochia scoparia) [10]; [21]): 0; Plant response rating, Corn (corn (Zea mays); [21]): 0; Plant response rating, Blackgrass [11, 21]: 0; Plant response rating, Galium [12, 21]: 0; Plant response rating, Foxtail, Giant [13, 21]: 80; Plant response rating, Foxtail, Giant [13, 20]: 90; Plant response rating, Barnyardgrass [14, 21]: 70; Plant response rating, Barnyardgrass [14, 20]: 90; Plant response rating, Ryegrass, Italian [15, 21]: 0; Plant response rating, Ryegrass, Italian [15, 20]: 0; Plant response rating, Pigweed [16, 21]: 0; Plant response rating, Pigweed [16, 20]: 0; Plant response rating, Wheat [17, 21]: 0; Plant response rating, Wheat [17, 20]: 0; Plant response rating, Ragweed [18, 21]: 0; Plant response rating, Ragweed [18, 20]: 30
